Where two headings read alike, the source gives them in different places.
What was measured:
phospho-Lyn = experiment: Western blot of BCR kinase phosphorylation in NHL cell lines; type: cell-based; conditions: 6 h, UPN-1, JVM-13, DoHH-2, SUDHL-16 cells
Experimental: (§1) Analysis of B-Cell Receptor (BCR) activation signaling molecules by Western Blot and flow cytometry. Total protein extracts in 1% Triton X-100 plus protease and phosphatase inhibitors were made from cells treated with a range of doses of the indicated compound (0.1, 1, 5 and 10 μM). These cells lysates were resolved by standard SDS-PAGE (sodium dodecyl sulfate polyacrylamide gel electrophoresis), transferred to PVDF (polyvinylidene difluoride) membranes and incubated overnight with the indicated primary antibodies (pSyk, pLyn and β-actin) followed by species-matched secondary horseradish peroxidase (HRP)-labelled antibodies. Chemiluminiscence was developed adding ECL (enhanced chemilumiscence) reagent and signal was captured in a LAS4000 device using Image Gauge software (Fujifilm). Intracellular amount of PhosphoY223-Btk was determined by inmunostaining with an anti-phosphoY223-Btk-PE antibody (clone N35-86), using IgG1 K isotype-PE as negative control (BD Biosciences). After the different treatments, cells (5×10^5) were fixed in 4% paraformaldehyde in PBS (15 min, 4° C.), permeabilized with cold methanol (10 min, −20° C.), washed with PBS containing 1% BSA and incubated with the indicated antibodies at room temperature for 15 min. Finally, cells were washed with PBS containing 1% BSA, resuspended in 500 μl PBS and analyzed by flow cytometry in an Attune acoustic focusing cytometer (Life Technologies). The Mean Fluorescence Ratio (MFIR) between the mean fluorescence intensity of Btk-PE signal and isotypic control was then calculated for both untreated and treated conditions. These MFIR were then referred to the untreated control (r).
(§2) To further assess the inhibitory effect of 4-amino-6-(2,6-dichlorophenyl)-8-methyl-2-(4-(4-methylpiperazin-1-yl)phenylamino)pyrido[2,3-d]pyrimidin-7(8H)-one (Example 5) on the activity of BCR kinases, a set of 4 cell lines representative of each entity was exposed for 6 h to increased doses of 4-amino-6-(2,6-dichlorophenyl)-8-methyl-2-(4-(4-methylpiperazin-1-yl)phenylamino)pyrido[2,3-d]pyrimidin-7(8H)-one (Example 5) and cell contents in phospho-Syk and phospho-Lyn were analysed by SDS-PAGE and western blotting with specific antibodies, using β-actin as a loading control. […] For the evaluation of phospho-Btk protein levels, cell lines were treated as above with a 5 μM dose of the compound and stained with an anti-phospho-Btk phycoerythin(PE)-labeled antibody followed by flow cytometry analysis.

phospho-Syk = experiment: as above; type: cell-based; conditions: 6 h, UPN-1, JVM-13, DoHH-2, SUDHL-16 cells
Experimental: as §1, §2

PhosphoY223-Btk = experiment: Flow cytometry of intracellular PhosphoY223-Btk; type: cell-based; conditions: 5 μM, 6 h
Experimental: as §1, with “After the different treatments, cells (5×10^5) were fixed in 4% paraformaldehyde in PBS (15 min, 4° C.), permeabilized with cold methanol (10 min, −20° C.), washed with PBS containing 1% BSA and incubated with the indicated antibodies at room temperature for 15 min.” left out, “These MFIR were then referred to the untreated control (r).” left out
To further assess the inhibitory effect of 4-amino-6-(2,6-dichlorophenyl)-8-methyl-2-(4-(4-methylpiperazin-1-yl)phenylamino)pyrido[2,3-d]pyrimidin-7(8H)-one (Example 5) on the activity of BCR kinases, a set of 4 cell lines representative of each entity was exposed for 6 h to increased doses of 4-amino-6-(2,6-dichlorophenyl)-8-methyl-2-(4-(4-methylpiperazin-1-yl)phenylamino)pyrido[2,3-d]pyrimidin-7(8H)-one (Example 5) and cell contents in phospho-Syk and phospho-Lyn were analysed by SDS-PAGE and western blotting with specific antibodies, using β-actin as a loading control. […]

SYK aa1-635 = target: T1, SYK aa1-635 (Homo sapiens, UniProt P43405); experiment: Radiometric protein kinase assay (33PanQinase Activity Assay), residual activity; type: biochemical; conditions: 10 μM (1×10^−05 M) test compound, singlicate
T1 construct: BTK, LYN, SYK aa1-635; purchased ProQinase; host or cells: Sf9 insect cells or E. coli (not specified per kinase)
Experimental: (§3) The kinase inhibition profile of compounds of formula (I) was evaluated at Proqinase (http://www.proqinase.conn) by measuring residual activity values at a concentration of 10 μM of the test compound in singlicate in front of the following kinases: BTK, LYN, SYK aa1-635 using the following protocol:
(§4) The compounds were dissolved to 1×10^−03 M stock solutions in 100% DMSO. Subsequently, 100 μl of each stock solution were transferred into wells A3-F12 of a microtiter plate (“master plate”). Wells A1-F2 were filled with 100 μl 100% DMSO as controls. 5×10 μl of the master plate were aliquoted into 5 copy plates, which were stored at −20° Celsius until use. For the testing of each group of up to 8 kinases, one copy plate was used.
(§5) In the process, 90 μl H2O were added to each well of a copy plate. To minimize precipitation, the H2O was added to each well only a few minutes before the transfer of the compound solutions into the assay plates. The plate was shaken thoroughly, resulting in a “compound dilution plate” with a compound concentration of 1×10^−04 M/10% DMSO. This plate was used for the transfer of 5 μl compound solution into the assay plates. The final volume of the assay was 50 μl. All compounds were tested at 1×10^−05 M in singlicate. The final DMSO concentration in the reaction cocktails was 1% in all cases. The compound dilution plates were disposed at the end of each working day.
(§6) A radiometric protein kinase assay (^33PanQinase® Activity Assay) was used for measuring the kinase activity of the corresponding protein kinases. All kinase assays were performed in 96-well FlashPlates™ from Perkin Elmer (Boston, Mass., USA) in a 50 μl reaction volume. The reaction cocktail was pipetted in 4 steps in the following order: • 10 μl of non-radioactive ATP solution (in H2O) • 25 μl of assay buffer/[γ-33P]-ATP mixture • 5 μl of test sample in 10% DMSO • 10 μl of enzyme/substrate mixture
(§7) The protein kinase reaction cocktails were incubated at 30° C. for 60 minutes. The reaction was stopped with 50 μl of 2% (v/v) H3PO4, plates were aspirated and washed two times with 200 μl 0.9% (w/v) NaCl. All assays were performed with a BeckmanCoulter Biomek 2000/SL robotic system. Incorporation of ^33Pi (counting of “cpm”) was determined with a microplate scintillation counter (Microbeta, Wallac).
(§8) All protein kinases provided by ProQinase were expressed in Sf9 insect cells or in E. coli as recombinant GST-fusion proteins or His-tagged proteins. All kinases were produced from human cDNAs and purified by either GSH-affinity chromatography or immobilized metal. Affinity tags were removed from a number of kinases during purification. The purity of the protein kinases was examined by SDS-PAGE/Coomassie staining, the identity was checked by mass spectroscopy.
(§9) For each kinase, the median value of the cpm of six wells of column 1 of each assay plate was defined as “low control” (n=6). This value reflects unspecific binding of radioactivity to the plate in the absence of a protein kinase but in the presence of the substrate. Additionally, for each kinase the median value of the cpm of six wells of column 2 of each assay plate was taken as the “high control”, i.e. full activity in the absence of any inhibitor (n=6). The difference between high and low control of each enzyme was taken as 100% activity.
(§10) As part of the data evaluation the low control of each kinase was subtracted from the high control value as well as from their corresponding “compound values”. The residual activity (in %) for each compound well was calculated by using the following formula: Res. Activity (%)=100×[(signal of compound −low control)/(high control −low control)] Results
(§11) The singlicate residual activity values of the tested compounds at one concentration (1×10^−05 M) in singlicate in the required protein kinase assays are given.

LYN = target: T2, LYN (Homo sapiens, UniProt P07948); experiment: as above; type: biochemical; conditions: 10 μM (1×10^−05 M) test compound, singlicate
T2 construct: purchased ProQinase; host or cells: Sf9 insect cells or E. coli (not specified per kinase)
Experimental: as §3, §4, §5, §6, §7, §8, §9, §10, §11

BTK = target: T3, BTK (Homo sapiens, UniProt Q06187); experiment: as above; type: biochemical; conditions: 10 μM (1×10^−05 M) test compound, singlicate
T3 construct: purchased ProQinase; host or cells: Sf9 insect cells or E. coli (not specified per kinase)
Experimental: as §3, §4, §5, §6, §7, §8, §9, §10, §11

DLBCL cell lines = experiment: MTT proliferation assay, growth inhibition; type: cell-based; conditions: n = 4 cell lines
Experimental: (§12) Cell culture: cell lines were grown in suitable culture media at 37° C. in a humidified atmosphere containing 5% CO2. The following MCL cell lines were used in the assays: Rec-1, HBL-2, UPN-1, Jeko-1, JVM-2, Maver-1, Mino, Granta-519, and Z-138. The following CLL cell lines were used in the assays: MEC-2, JVM-13, and MEC-1. The following FL cell lines were used in the assays: DoHH-2, WSU-NHL, WSU-FSCCL, and SC-1. The following DLBCL cell lines were used in the assays: OCI-LY8, SUDHL-8, U-2932, and SUDHL-16. The following media were used for the indicated cell lines: RPMI 1640+10% foetal bovine serum (FBS) for Rec-1, HBL-2, UPN-1, JVM-2, MAVER, Z138, Mino, JVM-13, WSU-NHL, WSU-FSCCL, DOHH2, SC-1 and U2932; RPMI 1640+20% FBS for Jeko-1, SUDHL-8 and SUDHL-16; DMEM+10% FBS for Granta-519; IMDM+10% FBS for MEC-1 and MEC-2; IMDM+20% FBS for OCI-LY8.
(§13) Analysis of the growth inhibition is carried out using the MTT (Thiazolyl Blue Tetrazolium Bromide) proliferation assay: cells grown in exponential phase were seeded in 96 well plates at 0.5×10^6 cell/ml and treated with 4-amino-6-(2,6-dichlorophenyl)-8-methyl-2-(4-(4-methylpiperazin-1-yl)phenylamino)pyrido[2,3-d]pyrimidin-7(8H)-one (Example 5) at the doses of 0.5, 1.5, 10, 20, 50 and 100 μM. After 24 h or 48 h, MTT reagent was added to each well, incubated for 2 h and plates were then read in a Synergy-HT Multi-Mode Microplate Reader (Biotek).

CLL cell lines = experiment: MTT proliferation assay, growth inhibition; type: cell-based; conditions: n = 3 cell lines
Experimental: as §12, §13

MCL cell lines = experiment: MTT proliferation assay, growth inhibition; type: cell-based; conditions: N9, n = 9 cell lines
Experimental: as §12, §13

[1] = tested on: panel of 20 NHLs cell lines; experiment: MTT proliferation assay, growth inhibition; type: cell-based; conditions: all tested cell lines
Experimental: as §12, §13

FL cell lines = experiment: MTT proliferation assay, growth inhibition; type: cell-based; conditions: n = 4 cell lines
Experimental: as §12, §13

[2] = tested on: relapsed/refractory non-Hodgkin's lymphoma and CLL; conditions: cited from earlier work
[3] = 24 h, read-out: GI50 range at 24 h
[4] = 24 h, read-out: Mean GI50 at 24 h
[5] = 48 h, read-out: GI50 range at 48 h
[6] = 48 h, read-out: Mean GI50 at 48 h

T3 sequence (Q06187 whole entry): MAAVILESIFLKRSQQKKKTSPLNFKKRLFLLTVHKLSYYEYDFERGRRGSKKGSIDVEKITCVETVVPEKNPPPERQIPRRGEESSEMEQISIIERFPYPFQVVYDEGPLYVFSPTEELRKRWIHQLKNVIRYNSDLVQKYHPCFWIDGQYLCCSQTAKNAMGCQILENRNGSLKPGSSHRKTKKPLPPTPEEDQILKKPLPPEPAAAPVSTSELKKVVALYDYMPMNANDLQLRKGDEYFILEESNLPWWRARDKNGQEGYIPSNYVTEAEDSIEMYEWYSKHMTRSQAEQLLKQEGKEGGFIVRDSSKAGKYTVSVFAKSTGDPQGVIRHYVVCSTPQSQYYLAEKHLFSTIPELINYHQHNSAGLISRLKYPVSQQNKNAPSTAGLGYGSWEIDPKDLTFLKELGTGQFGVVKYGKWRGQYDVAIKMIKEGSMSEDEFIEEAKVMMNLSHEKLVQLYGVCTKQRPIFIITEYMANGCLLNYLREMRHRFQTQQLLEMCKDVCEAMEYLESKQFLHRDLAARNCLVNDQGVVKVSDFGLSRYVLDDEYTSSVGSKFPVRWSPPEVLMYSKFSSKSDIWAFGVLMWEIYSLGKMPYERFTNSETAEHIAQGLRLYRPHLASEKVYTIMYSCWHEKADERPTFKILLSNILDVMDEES
T2 sequence (P07948 whole entry): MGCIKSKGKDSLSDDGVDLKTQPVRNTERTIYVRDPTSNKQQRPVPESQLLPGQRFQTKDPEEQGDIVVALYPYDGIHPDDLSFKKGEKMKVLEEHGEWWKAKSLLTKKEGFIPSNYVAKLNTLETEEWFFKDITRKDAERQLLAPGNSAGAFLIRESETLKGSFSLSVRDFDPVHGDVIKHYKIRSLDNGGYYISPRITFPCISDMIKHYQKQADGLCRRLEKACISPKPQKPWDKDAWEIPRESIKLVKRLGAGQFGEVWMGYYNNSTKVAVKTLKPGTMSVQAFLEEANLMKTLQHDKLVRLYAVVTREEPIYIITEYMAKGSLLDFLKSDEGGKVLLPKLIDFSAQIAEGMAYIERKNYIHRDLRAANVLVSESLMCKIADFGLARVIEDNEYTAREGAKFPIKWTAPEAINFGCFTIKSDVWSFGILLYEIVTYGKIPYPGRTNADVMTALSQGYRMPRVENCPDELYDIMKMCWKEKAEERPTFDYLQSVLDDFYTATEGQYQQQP

CN1CCN(c2ccc(Nc3nc(N)c4cc(-c5c(Cl)cccc5Cl)c(=O)n(C)c4n3)cc2)CC1 [Example 5, 4-amino-6-(2,6-dichlorophenyl)-8-methyl-2-(4-(4-methylpiperazin-1-yl)phenylamino)pyrido[2,3-d]pyrimidin-7(8H)-one]
Lyn phosphorylation inhibition (phospho-Lyn; 1 μM): already detectable | Lyn phosphorylation inhibition (phospho-Lyn; 5 μM): significantly enhanced | Lyn phosphorylation inhibition (phospho-Lyn; 10 μM): almost completely achieved | Syk phosphorylation inhibition (phospho-Syk; 1 μM): already detectable | Syk phosphorylation inhibition (phospho-Syk; 5 μM): significantly enhanced | Syk phosphorylation inhibition (phospho-Syk; 10 μM): almost completely achieved | downregulation of phospho-Btk (decrease of mean fluorescence intensity ratio) (PhosphoY223-Btk; DoHH-2 cells): 60% | downregulation of phospho-Btk (decrease of mean fluorescence intensity ratio) (PhosphoY223-Btk; JVM-13 cells): 60% | downregulation of phospho-Btk (decrease of mean fluorescence intensity ratio) (PhosphoY223-Btk; UPN-1 cells): 30% | remaining activity at 10 µM (SYK aa1-635): 9% | remaining activity at 10 µM (LYN): -1% | remaining activity at 10 µM (BTK): 3% | GI50 (DLBCL cell lines; [3]): 4.3 to 6.9 µM | GI50 (DLBCL cell lines; [4]): 5.4 µM | GI50 (DLBCL cell lines; [5]): 3.8 to 7.2 µM | GI50 (DLBCL cell lines; [6]): 5 µM | GI50 (CLL cell lines; [3]): 5.3 to 6.8 µM | GI50 (CLL cell lines; [4]): 5.9 µM | GI50 (CLL cell lines; [5]): 4.5 to 5.5 µM | GI50 (CLL cell lines; [6]): 4.9 µM | GI50 (MCL cell lines; [3]): 1.3 to 5.9 µM | GI50 (MCL cell lines; [4]): 3.6 µM | GI50 (MCL cell lines; [5]): 2.2 to 3.6 µM | GI50 (MCL cell lines; [6]): 3 µM | GI50 ([1]; 24 h, read-out: GI50 mean): 4.3 µM | GI50 ([1]; 24 h, read-out: GI50 range): 1.3 to 6.9 µM | GI50 ([1]; 48 h, read-out: GI50 mean): 3.6 µM | GI50 ([1]; 48 h, read-out: GI50 range): 1.4 to 7.2 µM | GI50 (FL cell lines; [3]): 2.6 to 4.9 µM | GI50 (FL cell lines; [4]): 3.7 µM | GI50 (FL cell lines; [5]): 1.4 to 4.4 µM | GI50 (FL cell lines; [6]): 2.7 µM

Cn1c(=O)c(-c2c(Cl)cccc2Cl)cc2c(N)nc(Nc3ccc(NCCN4CCOCC4)cc3)nc21 [Example 6, 4-amino-6-(2,6-dichlorophenyl)-8-methyl-2-(4-(2-morpholinoethylamino)-phenylamino)-pyrido[2,3-d]pyrimidin-7(8H)-one]
remaining activity at 10 µM (SYK aa1-635): 31% | remaining activity at 10 µM (LYN): 0% | remaining activity at 10 µM (BTK): 10%

Cn1c(=O)c(-c2c(Cl)cccc2Cl)cc2c(N)nc(Nc3ccc(OCCN4CCOCC4)cc3)nc21 [Example 7, 4-amino-6-(2,6-dichlorophenyl)-8-methyl-2-(4-(2-morpholinoethoxy)-phenylamino)-pyrido[2,3-d]pyrimidin-7(8H)-one]
remaining activity at 10 µM (SYK aa1-635): 44% | remaining activity at 10 µM (LYN): 0% | remaining activity at 10 µM (BTK): 16%

COc1cc(Nc2ncc(F)c(Nc3ccc4c(n3)N(COP(=O)(O)O)C(=O)C(C)(C)O4)n2)cc(OC)c1OC [fostamatinib]
response rate ([2]; DLBCL patients): 22% | response rate ([2]; FL patients): 10% | response rate ([2]; MCL patients): 11% | partial response (PR) ([2]; patients with CLL (6 of 11)): 55% | dose-limiting toxicity ([2]; phase 1/2 study): diarrhea, neutropenia, and thrombocytopenia

Source: US9630962B2, “4-amino-6-(2,6-dichlorophenyl)-2-(phenylamino)-pyrido[2,3-d]pyrimidin-7(8H)-one derivatives, synthesis and uses thereof” (INSTITUT QUÍMIC DE SARRIÁ, CETS FUNDACIÓ PRIVADA, priority 2013, dated 2017)
